Test results taken from the supplement of paper PMC10307832.

Legend:
Assay in all cases: relative viability (nuclei count vs DMSO), 5 days (fraction); higher = more cells survive
[1] = compound: CC(C)(C)c1cc(NC(=O)Nc2ccc(-c3cn4c(n3)sc3cc(OCCN5CCOCC5)ccc34)cc2)no1 [Quizartinib] + CS(=O)(=O)N1CCN(Cc2cc3nc(-c4cccc5[nH]ncc45)nc(N4CCOCC4)c3s2)CC1 [Pictilisib] (partner 1 µM)
Procedure, shortened: (§1)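 Cells from lung cancer lines were seeded into 1536-well plates and, one day later, dosed by pin tool. Treatments were either a single drug or a fixed dose of an anchor drug with five library-drug doses (not always all listed) in √10 steps. After 5 days, nuclei were stained in a one-step fixation (final 0.05% Triton X-100, 1% formaldehyde, 1 ug/ml Hoechst) and counted on 4× images, and relative viability is the treated-to-vehicle nuclei ratio, as the median of duplicate plates.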

[2] = compound: CC(C)(C)c1cc(NC(=O)Nc2ccc(-c3cn4c(n3)sc3cc(OCCN5CCOCC5)ccc34)cc2)no1 [Quizartinib] + Nc1ncn([C@H]2C[C@H](O)[C@@H](CO)O2)c(=O)n1 [Decitabine] (partner 2 µM)
Procedure, shortened: as §1

[3] = compound: COCC[n+]1c2c(n(Cc3cnccn3)c1C)C(=O)c1ccccc1C2=O [YM155] + CC(=O)Nc1cccc(-n2c(=O)n(C3CC3)c(=O)c3c(Nc4ccc(I)cc4F)n(C)c(=O)c(C)c32)c1 [Trametinib] (partner 0.02 µM)
Procedure, shortened: as §1

[4] = compound: COCC[n+]1c2c(n(Cc3cnccn3)c1C)C(=O)c1ccccc1C2=O [YM155] + NC(=O)Nc1cc(-c2cccc(F)c2)sc1C(=O)N[C@H]1CCCNC1 [AZD7762] (partner 0.2 µM)
Procedure, shortened: as §1

Cell Line	relative viability ([1]; first compound 0.001 µM)	relative viability ([1]; first compound 0.003162 µM)	relative viability ([1]; first compound 0.01 µM)	relative viability ([1]; first compound 0.03162 µM)	relative viability ([1]; first compound 0.1 µM)	relative viability ([2]; first compound 0.001 µM)	relative viability ([2]; first compound 0.003162 µM)	relative viability ([2]; first compound 0.01 µM)	relative viability ([2]; first compound 0.03162 µM)	relative viability ([2]; first compound 0.1 µM)	relative viability ([3]; first compound 0.002 µM)	relative viability ([3]; first compound 0.006325 µM)	relative viability ([3]; first compound 0.02 µM)	relative viability ([3]; first compound 0.06325 µM)	relative viability ([4]; first compound 0.002 µM)	relative viability ([4]; first compound 0.006325 µM)	relative viability ([4]; first compound 0.02 µM)	relative viability ([4]; first compound 0.06325 µM)
NCI-H1944	0.347	0.327	0.319	0.322	0.31	0.38	0.389	0.499	0.419	0.399	0.388	0.332	0.429	0.381	0.619	0.414	0.531	0.58
HCC-44	0.669	0.516	0.56	0.626	0.555	0.864	0.798	0.905	0.996	0.855	1.05	1.08	1.08	1.15	1.04	1.06	1.07	0.976
NCI-H460	0.439	0.436	0.382	0.352	0.384		0.454	0.613		0.459	0.081	0.147	0.174	0.14	0.596	0.628	0.777	0.459
NCI-H1993	0.917	0.776	0.812	0.807	0.808	0.564	0.673	0.624	0.632	0.615	0.466	0.536	0.427	0.453	0.687	0.775	0.475	0.537
LOU-NH91	0.431	0.559	0.521	0.465	0.545	0.746	0.815	0.862	0.79	0.89	0.8	0.747	0.807	0.788	0.766	0.756	0.769	0.8
LCLC-103H	0.535	0.733	0.591	0.547	0.546	0.632	0.735	0.682	0.796	0.759	0.647	0.637	0.674	0.716	0.752	0.821	0.832	0.781
201T	0.668	0.678	0.669	0.68	0.695	0.812	0.799	0.882	0.847	0.87	0.701	0.72	0.702	0.761	0.592	0.639	0.561	0.698
EKVX	0.464	0.478	0.471	0.407	0.476		0.282	0.361	0.369	0.353	0.394	0.369	0.376	0.249	0.591	0.723	0.747	0.483
